Data as given in publication PMC11252418, “Specific glycine-dependent enzyme motion determines the potency of conformation selective inhibitors of threonyl-tRNA synthetase” (Communications Biology, 2024).
Where “and” joins values, the source holds several entries; their conditions need not be identical. Identical values can stand only once.

Legend:
Assay type in all cases: biochemical
EcThrRS_A316N = target: T1, EcThrRS_A316N (Escherichia coli, UniProt P0A8M3, A316N); experiment: ATP hydrolysis assay; conditions: for ATP hydrolysis activity, inhibitory curve data point: OB, replicates, sheet Fig.S4b
T1 construct: The E. coli ThrRS (residues 242-642, Supplementary Note 1) wild type; 6xHis (C); made in house; host or cells: E. coli BL21 (DE3)
Description: (§1) 200 nM EcThrRS wide type and mutants, ObaO and ObaO_S464G mutant were incubated with serially diluted OB (0 to 10 μM for EcThrRS, 0 to 40 μM for ObaO) in a buffer containing 25 mM HEPES pH 7.5, 50 mM NaCl, 40 mM MgCl2, 30 mM KCl, 0.01 mg/mL bovine serum albumin (BSA), and 0.004% Tween-20 at 37 °C for 4 h and then mixed 1:1 with a substrate mixture containing 4 μM ATP, 40 μM L-threonine, 25 mM HEPES pH 7.5, 50 mM NaCl, 40 mM MgCl2, 30 mM KCl, 0.01 mg/mL BSA, and 0.004% Tween-20. The ATP hydrolysis reaction was performed at 37 °C for 4 h.
(§2) After incubation, the detection solution from the Kinase-Glo® luminescent kit (Promega, USA) was added to the reaction system at a 1:1 ratio, and the mixture was gently shaken for 10 min. The chemiluminescence signal was measured using a microplate reader (Tecan, USA). All experiments were performed in four replicates. The data were processed using GraphPad Prism 8 software.

EcThrRS_G463A = target: T2, EcThrRS_G463A (Escherichia coli, UniProt P0A8M3, G463A); experiment: ATP hydrolysis assay; conditions: ATP hydrolysis activity
T2 construct: The E. coli ThrRS (residues 242-642, Supplementary Note 1) wild type; 6xHis (C); made in house; host or cells: E. coli BL21 (DE3)
Description: as §1, §2

EcThrRS_G463S = target: T3, EcThrRS_G463S (Escherichia coli, UniProt P0A8M3, G463S); experiment: ATP hydrolysis assay; conditions: for ATP hydrolysis activity, inhibitory curve data point: OB, replicates, sheet Fig.2b
T3 construct: The E. coli ThrRS (residues 242-642, Supplementary Note 1) wild type; 6xHis (C); made in house; host or cells: E. coli BL21 (DE3)
Description: as §1, §2

[1] = test system: in vitro translation system of Kluyveromyces marxianus; conditions: K. marxianus extract, rebuttal letter
Source text: lactone produced by Pseudomonas fluorescens. Taxonomy, fermentation and biological properties. The Journal of antibiotics 37, 802-803 (1984).
28 Kumar, P. et al. l-Threonine Transaldolase Activity Is Enabled by a Persistent Catalytic Intermediate. ACS chemical biology 16, 86-95 (2021).
29 Schaffer, J. E., Reck, M. R., Prasad, N. K. & Wencewicz, T. A. beta-Lactone formation during product release from a nonribosomal peptide synthetase. Nat Chem Biol 13, […]
30 Scott, T. A., Heine, D., Qin, Z. & Wilkinson, B. An L-threonine transaldolase is required for L-threo-beta-hydroxy-alpha-amino acid assembly during obafluorin biosynthesis. Nature communications 8, 15935 (2017).
31 Kreitler, D. F., Gemmell, E. M., Schaffer, J. E., Wencewicz, T. A. & Gulick, A. M. The structural basis of N-acyl-alpha-amino-beta-lactone formation catalyzed by a nonribosomal peptide synthetase. Nature communications 10, 3432 (2019).
32 Jones, M. A. et al. Discovery of L-threonine transaldolases for enhanced biosynthesis of beta-hydroxylated amino acids. Communications biology 6, 929 (2023).
33 Batey, S. F. D. et al. The catechol moiety of obafluorin is essential for antibacterial
34 Qiao, H. et al. Tyrosine-targeted covalent inhibition of a tRNA synthetase aided by zinc ion. Communications biology 6, 107 (2023).
Whether OB has inhibitory activity against eukaryotic ThrRS is also a great question. […]

T3 sequence (P0A8M3 242-642 G463S): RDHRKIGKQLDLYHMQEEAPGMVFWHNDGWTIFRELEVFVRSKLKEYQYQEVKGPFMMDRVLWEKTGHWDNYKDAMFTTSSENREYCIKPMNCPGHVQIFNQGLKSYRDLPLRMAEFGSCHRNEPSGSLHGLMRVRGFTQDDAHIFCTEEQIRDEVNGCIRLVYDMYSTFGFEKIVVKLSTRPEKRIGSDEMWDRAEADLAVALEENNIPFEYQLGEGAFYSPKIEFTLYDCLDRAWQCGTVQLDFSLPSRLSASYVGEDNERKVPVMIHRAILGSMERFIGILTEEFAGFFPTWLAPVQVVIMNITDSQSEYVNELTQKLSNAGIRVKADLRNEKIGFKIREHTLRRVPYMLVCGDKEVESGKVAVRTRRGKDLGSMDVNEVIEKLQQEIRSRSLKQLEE
T1 sequence (P0A8M3 242-642 A316N): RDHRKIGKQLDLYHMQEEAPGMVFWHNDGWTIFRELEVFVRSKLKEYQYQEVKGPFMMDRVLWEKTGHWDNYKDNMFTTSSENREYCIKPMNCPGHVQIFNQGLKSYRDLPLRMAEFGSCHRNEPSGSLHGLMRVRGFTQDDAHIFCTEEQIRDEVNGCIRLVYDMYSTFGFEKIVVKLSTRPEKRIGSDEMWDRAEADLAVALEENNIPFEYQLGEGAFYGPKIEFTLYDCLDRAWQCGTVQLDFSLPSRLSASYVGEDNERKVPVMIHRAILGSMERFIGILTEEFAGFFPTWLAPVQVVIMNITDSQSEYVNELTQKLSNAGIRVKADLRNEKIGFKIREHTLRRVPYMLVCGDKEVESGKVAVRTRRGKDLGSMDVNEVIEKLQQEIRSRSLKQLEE
T2 sequence (P0A8M3 242-642 G463A): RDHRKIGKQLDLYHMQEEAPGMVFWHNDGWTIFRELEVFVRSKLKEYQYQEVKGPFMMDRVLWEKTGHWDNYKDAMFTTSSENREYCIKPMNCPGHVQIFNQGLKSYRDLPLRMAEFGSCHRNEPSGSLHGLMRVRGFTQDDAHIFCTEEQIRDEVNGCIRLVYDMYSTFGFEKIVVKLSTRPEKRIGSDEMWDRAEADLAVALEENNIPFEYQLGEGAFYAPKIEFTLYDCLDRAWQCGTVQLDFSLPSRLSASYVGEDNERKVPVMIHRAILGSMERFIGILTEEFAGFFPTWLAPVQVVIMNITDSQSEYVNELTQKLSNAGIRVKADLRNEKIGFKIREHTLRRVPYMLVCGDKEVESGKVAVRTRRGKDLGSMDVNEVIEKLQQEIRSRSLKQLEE

Compound: O=C(N[C@@H]1C(=O)O[C@@H]1Cc1ccc([N+](=O)[O-])cc1)c1cccc(O)c1O [OB, Obafluorin]
- IC50 (EcThrRS_A316N; ATP hydrolysis activity): 848 nM
- ATP hydrolysis activity, inhibitory curve data point (EcThrRS_A316N; Log10 Conc. 0.690, A316N): 85.962 and 86.560 and 99.695 and 84.767
- ATP hydrolysis activity, inhibitory curve data point (EcThrRS_A316N; Log10 Conc. 0.991, A316N): 88.637 and 98.163 and 100.359 and 100.821
- ATP hydrolysis activity, inhibitory curve data point (EcThrRS_A316N; Log10 Conc. 1.290, A316N): 94.677 and 95.220 and 104.669 and 107.135
- ATP hydrolysis activity, inhibitory curve data point (EcThrRS_A316N; Log10 Conc. 1.591, A316N): 79.114 and 84.617 and 87.973 and 87.592
- ATP hydrolysis activity, inhibitory curve data point (EcThrRS_A316N; Log10 Conc. 1.892, A316N): 95.097 and 93.442 and 93.401 and 99.302
- ATP hydrolysis activity, inhibitory curve data point (EcThrRS_A316N; Log10 Conc. 2.193, A316N): 78.735 and 83.708 and 90.525 and 92.235
- ATP hydrolysis activity, inhibitory curve data point (EcThrRS_A316N; Log10 Conc. 2.494, A316N): 68.683 and 74.410 and 84.890 and 82.431
- ATP hydrolysis activity, inhibitory curve data point (EcThrRS_A316N; Log10 Conc. 2.796, A316N): 50.753 and 55.935 and 67.595 and 73.554
- ATP hydrolysis activity, inhibitory curve data point (EcThrRS_A316N; Log10 Conc. 3.097, A316N): 29.054 and 40.656 and 45.720 and 53.072
- ATP hydrolysis activity, inhibitory curve data point (EcThrRS_A316N; Log10 Conc. 3.398, A316N): -3.828 and 7.860 and 7.462 and 26.771
- ATP hydrolysis activity, inhibitory curve data point (EcThrRS_A316N; Log10 Conc. 3.699, A316N): 7.311 and 15.246 and 17.984 and 36.982
- inhibitory effect (EcThrRS_G463A): no inhibitory effect
- inhibition at 5 µM (EcThrRS_G463S; 5 μM OB): ~10%
- inhibitory activity (EcThrRS_G463S; ATP hydrolysis activity): poor activity
- ATP hydrolysis activity, inhibitory curve data point (EcThrRS_G463S; Log10 Conc. 1.279, G463S): 106.793 and 98.818 and 94.863 and 99.954
- ATP hydrolysis activity, inhibitory curve data point (EcThrRS_G463S; Log10 Conc. 1.597, G463S): 100.752 and 93.821 and 90.230 and 89.239
- ATP hydrolysis activity, inhibitory curve data point (EcThrRS_G463S; Log10 Conc. 1.892, G463S): 119.110 and 112.303 and 110.507 and 107.832
- ATP hydrolysis activity, inhibitory curve data point (EcThrRS_G463S; Log10 Conc. 2.193, G463S): 113.765 and 106.055 and 104.056 and 103.914
- ATP hydrolysis activity, inhibitory curve data point (EcThrRS_G463S; Log10 Conc. 2.495, G463S): 113.955 and 101.766 and 100.028 and 98.945
- ATP hydrolysis activity, inhibitory curve data point (EcThrRS_G463S; Log10 Conc. 2.796, G463S): 114.391 and 100.345 and 101.496 and 101.074
- ATP hydrolysis activity, inhibitory curve data point (EcThrRS_G463S; Log10 Conc. 3.097, G463S): 109.765 and 91.814 and 95.122 and 94.032
- ATP hydrolysis activity, inhibitory curve data point (EcThrRS_G463S; Log10 Conc. 3.398, G463S): 99.125 and 85.681 and 84.901 and 83.398
- ATP hydrolysis activity, inhibitory curve data point (EcThrRS_G463S; Log10 Conc. 3.699, G463S): 98.676 and 85.750 and 87.909 and 87.887
- ATP hydrolysis activity, inhibitory curve data point (EcThrRS_G463S; Log10 Conc. 4.000, G463S): 100.800 and 85.432 and 86.068 and 84.275
- IC50 [1]: ~9 µM
